The values below come from US4634692A, “Synthesis of 1α,25-dihydroxy-24R-fluorocholecalciferol and 1α,25-dihydroxy-24S-fluorocholecalciferol” (Hoffmann-La Roche Inc., priority 1984, dated 1987).

Several values for one entry are separate records, joined by “and”; a condition that tells them apart may be missing. Equal values may be shown once. Entries after “also recorded” stand apart in the source; their conditions may differ. Read-outs that look alike come from different tables or passages of the source.

Data set [1] relates to EHDP-Induced Mineralization Block. The data set can be described thus: Prevention of EHDP-induced mineralization block in rats (tibial epiphyseal plate width). The note with it: 10 days; for Mean tibial epiphyseal plate width: with EHDP. The data set is classed as in vivo, rat (Charles River CD male). Here is the method:
Charles River CD male rats are treated for 10 consecutive days. Rats are 21 days of age at the start of treatment. Ethane-1-hydroxy-1,1-diphosphonate (EHDP) is given subcutaneously on each treatment day at a dose of 3 mg/0.2 ml/rat in distilled water. Test compounds are administered orally on each treatment day in propylene glycol (0.2 ml/rat). Rats are autopsied on the day after the last treatment day and tibias are processed by a modified von Kossa procedure based upon silver impregnation of bone salts. Epiphyseal plate widths are measured with a micrometer ocular using standard microscopic magnification (35×). Activity is based upon dose-dependent narrowing of the widened epiphyseal plate induced by EHDP. Ten rats are used in each treatment group. Positive (EHDP alone) and negative (vehicles alone) control groups of ten rats each are included in each experiment.

The nature of data set [2]: Pharmacokinetics in dogs, plasma half-life after intravenous administration. The note with it: dog, in vivo, 0.0003 mg/kg. The method, then: The plasma level profiles of 1α,25-dihydroxy-24R-fluorocholecalciferol and 1α,25-dihydroxycholecalciferol are compared in the dog after a single intraveneous dose. Each compound is studied in four dogs with a two-week "washout" period between compounds. The compounds are administered intravenously as solutions (2.5 mg/ml) in propylene glycol at a dose level of 0.3 μg/kg. At selected time points 5 ml of heparinized blood are collected, placed in ice and centrifuged in the cold. Plasma is separated and frozen immediately.
Plasma concentrations are determined by procedures routinely employed for the measurements of circulating levels of 1α,25-dihydroxycholecalciferol.

The subject of data set [3] is vitamin D-deficient chicks. The data set can be described thus: Anti-rachitogenic activity in chicks (tibia ash weight). The note with it: for Mean tibia ash weight ± S.E.: 21 days oral dosing, 9-10 chicks per group, vehicle 120.9 ± 8.3. The data set is classed as in vivo, chick (White Leghorn cockerels). Here is the method: One-day-old White Leghorn cockerels are placed on a vitamin D-deficient diet which contains 1% calcium and 0.7% phosphorous and are housed under ultraviolet-free lighting (General Electric F40G0 gold fluorescent lights). Compounds are dissolved in propylene glycol and administered orally in a volume of 0.2 ml for 21 consecutive days to chicks which are one to two days of age at the start of treatment. Controls are treated with vehicle alone. Compounds are prepared in amber flasks and the solutions are flushed with argon and refrigerated after each dosing period. Chicks are autopsied on the day after the last treatment day. Blood is collected for determination of serum calcium and phosphorus and tibia dry weight and ash weight are determined. Usually, ten chicks are used for each treatment group and for the control group. The results of the 1α,25-dihydroxy-24R-fluorocholecalciferol anti-rachitogenic activity assay are shown in Table I along with comparative data showing the anti-rachiotogenic activity of 24,24-difluoro 1α,25-dihydroxycholecalciferol.

Data set [4] concerns intestinal calcium absorption. The data set can be described thus: Intestinal calcium absorption in vitamin D-deficient chicks (serum 45Ca). The format is in vivo, chick (Leghorn cockerels). Here is the method: While Leghorn one-day-old cockerels are placed on a vitamin D-deficient diet and are housed under ultraviolet-free lighting for 21 days. Chicks are then used to determine the effects of test compounds on intestinal calcium absorption. A single oral dose of test compound dissolved in propylene glycol is administered. At various times after dosing, 2 uCi of ^45 Ca (chloride) is given orally, and serum radioactivity is measured 45 minutes after administration of the isotope. Ten chicks are used in each treatment and control group and vehicle-treated controls are included at each time period.

[5] abbreviates: 2.5 picomoles/rat/day p.o., vehicles 447, EHDP alone 1502.
The mark [6] stands for this setting: 7.5 picomoles/rat/day p.o., vehicles 416, EHDP alone 1390.
The mark [7] stands for this setting: 25 picomoles/rat/day p.o., vehicles 435, EHDP alone 1684.
Where [8] appears, read: 75 picomoles/rat/day p.o., vehicles 448, EHDP alone 1332.
Setting [9] is: 250 picomoles/rat/day p.o., vehicles 428, EHDP alone 1385.

Broadly, the half-life is the time in which the quantity being followed falls by half. Regarding `C=C1/C(=C\C=C2/CCC[C@]3(C)[C@@H]([C@H](C)CCCC(C)(C)O)CC[C@@H]23)C[C@@H](O)C[C@@H]1O` [1α,25-dihydroxycholecalciferol], the “Mean tibial epiphyseal plate width” value was determined as 1365 Micra in data set [1] (setting [5]); 1240 Micra in data set [1] (setting [6]); 1103 Micra in data set [1] (setting [7]); 922 Micra in data set [1] (setting [8]); 839 Micra in data set [1] (setting [9]). For the same molecule, the half-life in data set [2] (0.3 mcg/kg, i.v., dogs, read-out: Plasma half-life (converted)) is 3.6 h.
Turning to `C=C1/C(=C\C=C2/CCC[C@]3(C)[C@@H]([C@H](C)CCC(F)(F)C(C)(C)O)CC[C@@H]23)C[C@@H](O)C[C@@H]1O` [24,24-difluoro 1α,25-dihydroxycholecalciferol, reference compound], the entries for the “Mean tibia ash weight ± S.E.” value in data set [3] (3 ng/chick/day), in data set [3] (10 ng/chick/day) and in data set [3] (30 ng/chick/day) were 192.2 ± 6.2 mg, 258.6 ± 10.0 mg and 229.8 ± 14.2 mg, respectively.
Take `CC(O)(P(=O)(O)O)P(=O)(O)O` [EHDP, Ethane-1-hydroxy-1,1-diphosphonate]: the “Mean tibial epiphyseal plate width, EHDP alone (positive control)” value in data set [1] (EHDP 3 mg/0.2 ml/rat s.c., control groups of the 2.5, 7.5, 25, 75, 250 pmol) is 1502 Micra and 1390 Micra and 1684 Micra and 1332 Micra and 1385 Micra.
`C=C1/C(=C\C=C2/CCC[C@]3(C)[C@@H]([C@H](C)CC[C@@H](F)C(C)(C)O)CC[C@@H]23)C[C@@H](O)C[C@@H]1O` [[1α,3β,5Z,7E,24R]-24-fluoro-9,10-secocholesta-5,7,10(19)-trien-1,3,25-triol]: the “Mean tibia ash weight ± S.E.” value was found to be 293.3 ± 4.8 mg in data set [3] (3 ng/chick/day), 330.4 ± 7.7 mg in data set [3] (10 ng/chick/day) and 337.9 ± 10.6 mg in data set [3] (30 ng/chick/day). The “Anti-rachitogenic activity (in words)” value in data set [3] (oral, 21 consecutive days) is “has shown activity in the anti-rachitogenic test in chicks; also recorded: possesses potent anti-rachitogenic activity”. Further, the “Serum 45Ca” value in data set [4] (24 hr after single oral dose, vehicle 408 ± 30, *** statistically significant) is 793 ± 73 CPM/0.2 ML; in data set [4] (48 hr after single oral dose, vehicle 439 ± 30, not statistically significant), 520 ± 38 CPM/0.2 ML; in data set [4] (72 hr after single oral dose, vehicle 398 ± 31, not statistically significant), 372 ± 39 CPM/0.2 ML. Further, the “Duration of activity in stimulation of intestinal calcium absorption versus 1α,25-dihydroxycholecalciferol (in words)” value in data set [4] (single oral 100 nanogram dose) is “comparable to that of 1α,25-dihydroxycholecalciferol”. In addition, the “Mean tibial epiphyseal plate width” value in data set [1] (setting [5]) worked out at 1302 Micra; in data set [1] (setting [6]), 1031 Micra; in data set [1] (setting [7]), 1040 Micra; in data set [1] (setting [8]), 864 Micra; in data set [1] (setting [9]), 783 Micra. In data set [1] (oral, rats), the “Prevention of EHDP-induced mineralization block (in words)” value is recorded as “has shown activity in the test for the prevention of EHDP-Induced Mineralization Block in rats; also recorded: narrows the widening of the epiphyseal plate induced by EHDP”. For the same molecule, the half-life in data set [2] is 14.4 h.
